According to patent US7704995B2 (Exelixis, Inc., priority 2003, dated 2010):

Target: T1, Chk1 (Homo sapiens, UniProt O14757)
T1 construct: purchased Upstate Biotechnology
T1 sequence (O14757 1-476): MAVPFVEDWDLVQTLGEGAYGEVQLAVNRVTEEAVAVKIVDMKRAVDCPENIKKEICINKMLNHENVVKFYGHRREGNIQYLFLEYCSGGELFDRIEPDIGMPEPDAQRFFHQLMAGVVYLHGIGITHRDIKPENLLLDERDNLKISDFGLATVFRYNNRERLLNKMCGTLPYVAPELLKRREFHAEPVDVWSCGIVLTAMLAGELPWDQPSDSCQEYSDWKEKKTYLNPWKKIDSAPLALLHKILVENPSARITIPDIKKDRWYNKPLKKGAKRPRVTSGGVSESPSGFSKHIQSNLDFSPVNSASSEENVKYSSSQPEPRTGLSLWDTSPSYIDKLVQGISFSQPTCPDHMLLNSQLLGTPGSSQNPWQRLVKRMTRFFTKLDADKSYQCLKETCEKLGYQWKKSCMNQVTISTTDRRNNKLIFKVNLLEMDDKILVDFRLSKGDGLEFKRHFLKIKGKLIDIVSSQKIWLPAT
Test: Chk1 kinase assay: incorporation of γ-33P ATP into immobilized myelin basic protein
Type: biochemical
Settings: Table 11, Chk1 only; class symbols A-D; read-out: Chk1 IC50
Outline: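 Enzyme activity is measured as γ-33P transfer from ATP onto immobilized MBP over 1 h at room temperature, with Chk1 at 10 nM/10 μM unlabeled ATP and Chk2 at 20 nM/30 μM unlabeled ATP. Compounds are tested in 1% DMSO.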

| IC50 [µM] | SMILES |
| --- | --- |
| < 0.05 | Nc1ncc(-c2cccc(CNC(=O)Nc3ccc(OC(F)(F)F)cc3)c2)nc1C(=O)N[C@H]1CCCNC1 [Example 930, 3-amino-N-[(3S)-piperidin-3-yl]-6-[3-({[({4-[(trifluoromethyl)oxy]phenyl}amino)carbonyl]amino}methyl)phenyl]pyrazine-2-carboxamide] |
| < 0.05 | Nc1ncc(-c2cccc(C(=O)NC(Cc3ccccc3)c3ccccc3)c2)nc1C(=O)N[C@H]1CCCNC1 (stereo partly drawn) [Example 866, 3-amino-6-(3-{[(1,2-diphenylethyl)amino]carbonyl}phenyl)-N-[(3S)-piperidin-3-yl]pyrazine-2-carboxamide] |
| < 0.05 | Nc1ncc(-c2cccc(C(=O)NCc3ccc(Cl)cc3F)c2)nc1C(=O)N[C@H]1CCCCNC1 [Example 996, 3-amino-N-[(3S)-azepan-3-yl]-6-[3-({[(4-chloro-2-fluorophenyl)methyl]amino}carbonyl)phenyl]pyrazine-2-carboxamide] |
| < 0.05 | Nc1ncc(-c2cccc(NC(=O)c3ccc(-c4cnns4)cc3)c2)nc1C(=O)N[C@H]1CCCNC1 [Example 901, 3-amino-N-[(3S)-piperidin-3-yl]-6-[3-({[4-(1,2,3-thiadiazol-5-yl)phenyl]carbonyl}amino)phenyl]pyrazine-2-carboxamide] |
| < 0.05 | Nc1ncc(-c2cccc(NC(=O)Cc3ccc(F)cc3F)c2)nc1C(=O)N[C@H]1CCCNC1 [Example 897, 3-amino-6-(3-{[(2,4-difluorophenyl)acetyl]amino}phenyl)-N-[(3S)-piperidin-3-yl]pyrazine-2-carboxamide] |
| < 0.05 | Nc1ncc(-c2cccc(C(=O)NCc3cccc(Cl)c3F)c2)nc1C(=O)N[C@H]1CCCCNC1 [Example 1024, 3-amino-N-[(3S)-azepan-3-yl]-6-[3-({[(3-chloro-2-fluorophenyl)methyl]amino}carbonyl)phenyl]pyrazine-2-carboxamide] |

Same assay, conditions: Table 11; Chk1 only; read-out: Chk1 IC50

| IC50 [µM] | SMILES |
| --- | --- |
| 0.05 to 1 | Nc1ncc(-c2cccc(C(=O)N[C@H]3CCc4ccccc43)c2)nc1C(=O)NC1CCCNCC1 (stereo partly drawn) [Example 768, 3-amino-N-azepan-4-yl-6-(3-{[(1S)-2,3-dihydro-1H-inden-1-ylamino]carbonyl}phenyl)pyrazine-2-carboxamide] |
| 1 to 10 | N=C(NN1CCCCCC1)c1nc(-c2cccc(C(=O)NCc3ccccc3)c2)cnc1N [Example 623, 3-{5-amino-6-[(azepan-1-ylamino)(imino)methyl]pyrazin-2-yl}-N-(phenylmethyl)benzamide] |
| < 0.05 | Nc1ncc(-c2cccc(C(=O)N[C@H]3CCc4ccccc43)c2)nc1C(=O)NC[C@@H]1CCNC1 [Example 753, 3-amino-6-(3-{[(1S)-2,3-dihydro-1H-inden-1-ylamino]carbonyl}phenyl)-N-[(3R)-pyrrolidin-3-ylmethyl]pyrazine-2-carboxamide] |
| 0.05 to 1 | CN(C)C(=O)c1nc(-c2cccc(CN[C@H]3CCc4ccccc43)c2)cnc1N [Example 554, 3-amino-6-(3-{[(1S)-2,3-dihydro-1H-inden-1-ylamino]methyl}phenyl)-N,N-dimethylpyrazine-2-carboxamide] |
| ≥ 10 | CC(C)(C)OC(=O)N1CCCC(NC(=O)c2nc(-c3cccc(C(=O)N[C@H]4CCc5ccccc54)c3)cnc2N)CC1 (stereo partly drawn) [Example 770, 1,1-dimethylethyl 4-({[3-amino-6-(3-{[(1S)-2,3-dihydro-1H-inden-1-ylamino]carbonyl}phenyl)pyrazin-2-yl]carbonyl}amino)azepane-1-carboxylate] |
| 0.05 to 1 | CNC(=O)c1nc(-c2cccc(CNCc3ccc(-c4ccccc4)cc3F)c2)cnc1N [Example 449, 3-amino-6-[3-({[(3-fluorobiphenyl-4-yl)methyl]amino}methyl)phenyl]-N-methylpyrazine-2-carboxamide] |
| ≥ 10 | Nc1ncc(-c2cccc(CO)c2)nc1-c1nc(C2CCCCN2)n[nH]1 (centres unmarked) [Example 698, {3-[5-amino-6-(3-piperidin-2-yl-1H-1,2,4-triazol-5-yl)pyrazin-2-yl]phenyl}methanol] |
| 0.05 to 1 | CNC(=O)c1nc(-c2cccc(CNC3CCc4cc(OCCN5CCOCC5)ccc43)c2)cnc1N (centres unmarked) [Example 505, 3-amino-N-methyl-6-{3-[({5-[(2-morpholin-4-ylethyl)oxy]-2,3-dihydro-1H-inden-1-yl}amino)methyl]phenyl}pyrazine-2-carboxamide] |
| 0.05 to 1 | C/C(=N\N1CCCCCC1)c1nc(-c2cccc(C(=O)NCc3ccccc3)c2)cnc1N [Example 674, 3-{5-amino-6-[(1E)-N-azepan-1-ylethanimidoyl]pyrazin-2-yl}-N-(phenylmethyl)benzamide] |
| 0.05 to 1 | CNC(=O)c1nc(-c2cccc(CNC3CCc4c(F)cc(F)cc43)c2)cnc1N (centres unmarked) [Example 474, 3-amino-6-(3-{[(4,6-difluoro-2,3-dihydro-1H-inden-1-yl)amino]methyl}phenyl)-N-methylpyrazine-2-carboxamide] |
| < 0.05 | Nc1ncc(-c2cccc(C(=O)N[C@H]3CCc4ccccc43)c2)nc1C(=O)N[C@H]1CCNC1 [Example 644, 3-amino-6-(3-{[(1S)-2,3-dihydro-1H-inden-1-ylamino]carbonyl}phenyl)-N-[(3S)-pyrrolidin-3-yl]pyrazine-2-carboxamide] |

Same assay, conditions: read-out: Chk1 IC50

| IC50 [µM] | SMILES |
| --- | --- |
| 0.05 to 1 | CNC(=O)c1nc(-c2cccc(C(=O)NCC(C)c3ccccc3)c2)cnc1N (centres unmarked) [Example 127, 3-amino-N-methyl-6-(3-{[(2-phenylpropyl)amino]carbonyl}phenyl)pyrazine-2-carboxamide] |
| ≥ 10 | CNC(=O)c1nc(-c2noc(-c3ccco3)n2)cnc1N [Example 75, 3-amino-6-(5-furan-2-yl-1,2,4-oxadiazol-3-yl)-N-methylpyrazine-2-carboxamide] |
| 0.05 to 1 | CNC(=O)c1nc(-c2cccc(C(=O)NCc3cccc(C)c3C)c2)cnc1N [Example 243, 3-amino-6-[3-({[(2,3-dimethylphenyl)methyl]amino}carbonyl)phenyl]-N-methylpyrazine-2-carboxamide] |
| 0.05 to 1 | CNC(=O)c1nc(-c2cccc(C(=O)N[C@@H]3c4ccccc4C[C@@H]3O)c2)cnc1N [Example 140, 3-amino-6-[3-({[(1R,2S)-2-hydroxy-2,3-dihydro-1H-inden-1-yl]amino}carbonyl)phenyl]-N-methylpyrazine-2-carboxamide] |
| 0.05 to 1 | CNC(=O)c1nc(-c2cccc(CNC(=O)c3ccc4ccccc4c3)c2)cnc1N [Example 311, 3-amino-N-methyl-6-(3-{[(naphthalen-2-ylcarbonyl)amino]methyl}phenyl)pyrazine-2-carboxamide] |
| < 0.05 | CNC(=O)c1nc(-c2cccc(C(=O)NCc3cccc(I)c3)c2)cnc1N [Example 340, 3-amino-6-[3-({[(3-iodophenyl)methyl]amino}carbonyl)phenyl]-N-methylpyrazine-2-carboxamide] |
| 1 to 10 | CC[C@@H](NC(=O)c1cccc(-c2cnc(N)c(C(=O)NC)n2)c1)c1ccccc1 [Example 146, 3-amino-N-methyl-6-[3-({[(1R)-1-phenylpropyl]amino}carbonyl)phenyl]pyrazine-2-carboxamide] |
| 0.05 to 1 | CNC(=O)c1nc(-c2cccc(NC(=O)Nc3ccc(OC)cc3)c2)cnc1N [Example 90, 3-amino-N-methyl-6-{3-[({[4-(methyloxy)phenyl]amino}carbonyl)amino]phenyl}pyrazine-2-carboxamide] |
| 0.05 to 1 | CNC(=O)c1nc(-c2cccc(C(=O)NCc3cc(OC)cc(OC)c3)c2)cnc1N [Example 254, 3-amino-6-{3-[({[3,5-bis(methyloxy)phenyl]methyl}amino)carbonyl]phenyl}-N-methylpyrazine-2-carboxamide] |
| 1 to 10 | CNC(=O)c1nc(-c2cccc(C(=O)NCc3cccc(OC(F)(F)F)c3)c2)cnc1N [Example 218, 3-amino-N-methyl-6-(3-{[({3-[(trifluoromethyl)oxy]phenyl}methyl)amino]carbonyl}phenyl)pyrazine-2-carboxamide] |
| 0.05 to 1 | CNC(=O)c1nc(-c2cccc(C(=O)N[C@H]3CCc4ccccc43)c2)cnc1N [Example 97, 3-amino-6-(3-{[(1S)-2,3-dihydro-1H-inden-1-ylamino]carbonyl}phenyl)-N-methylpyrazine-2-carboxamide] |
| 0.05 to 1 | CNC(=O)c1nc(-c2cccc(NC(=O)c3cccc(OC)c3)c2)cnc1N [Example 105, 3-amino-N-methyl-6-[3-({[3-(methyloxy)phenyl]carbonyl}amino)phenyl]pyrazine-2-carboxamide] |
| 1 to 10 | CNC(=O)c1nc(-c2cccc(C(=O)NCc3cnc(C)cn3)c2)cnc1N [Example 120, 3-amino-N-methyl-6-[3-({[(5-methylpyrazin-2-yl)methyl]amino}carbonyl)phenyl]pyrazine-2-carboxamide] |
| 0.05 to 1 | CNC(=O)c1nc(-c2cccc(C(=O)NCc3cc(Cl)ccc3F)c2)cnc1N [Example 277, 3-amino-6-[3-({[(5-chloro-2-fluorophenyl)methyl]amino}carbonyl)phenyl]-N-methylpyrazine-2-carboxamide] |
| 0.05 to 1 | CNC(=O)c1nc(-c2cccc(CN[C@H](C)c3ccccc3)c2)cnc1N [Example 420, 3-amino-N-methyl-6-[3-({[(1R)-1-phenylethyl]amino}methyl)phenyl]pyrazine-2-carboxamide] |
